Experimental data: patent publication US8853224B2 (priority 2006, dated 2014)

Target: Plasmodium falciparum purine nucleoside phosphorylase (PfPNP) (Plasmodium falciparum (isolate 3D7), UniProt Q8I3X4)
Assay: biochemical
Excerpt: For inhibitors without slow-onset properties, fits to the same equation were made, but using initial reaction rates.

Row | SMILES | Kd
1 | O=c1[nH]cnc2c(CNC[C@@H](O)[C@H](O)CO)c[nH]c12 (racemic) [Example 20.5, 7-(((2RS,3RS)-2,3,4-trihydroxybutylamino)methyl)-3H-pyrrolo[3,2-d]pyrimidin-4(5H)-one] | 32 ± 2 µM
2 | O=c1[nH]cnc2c(CNCC(CO)CO)c[nH]c12 [Example 8, 7-((3-hydroxy-2-(hydroxymethyl)propylamino)methyl)-3H-pyrrolo[3,2-d]pyrimidin-4(5H)-one] | 0.21 ± 0.05 µM
3 | O=c1[nH]cnc2c(CNC[C@H](O)[C@H](O)CO)c[nH]c12 [Example 19.3, 7-(((2S,3R)-2,3,4-trihydroxybutylamino)methyl)-3H-pyrrolo[3,2-d]pyrimidin-4(5H)-one] | 12 ± 2 µM
